ChEMBL document CHEMBL2046386, “Potent and selective aminopyrimidine-based B-Raf inhibitors with favorable physicochemical and pharmacokinetic properties” (J Med Chem, 2012)
Values after ≈ are worked out from the molar mass of the structure shown.

How the values were obtained:
[1] = biological target: T1, Serine/threonine-protein kinase B-raf (Homo sapiens, UniProt P15056, V600E); experiment: Inhibition of His6X-tagged human B-raf V600E mutant expressed in baculovirus infected insect cells coexpressing […] using [gamma33P]ATP after 60 mins by scintillation counting
T1 sequence (P15056 2-766 V600E limits assumed): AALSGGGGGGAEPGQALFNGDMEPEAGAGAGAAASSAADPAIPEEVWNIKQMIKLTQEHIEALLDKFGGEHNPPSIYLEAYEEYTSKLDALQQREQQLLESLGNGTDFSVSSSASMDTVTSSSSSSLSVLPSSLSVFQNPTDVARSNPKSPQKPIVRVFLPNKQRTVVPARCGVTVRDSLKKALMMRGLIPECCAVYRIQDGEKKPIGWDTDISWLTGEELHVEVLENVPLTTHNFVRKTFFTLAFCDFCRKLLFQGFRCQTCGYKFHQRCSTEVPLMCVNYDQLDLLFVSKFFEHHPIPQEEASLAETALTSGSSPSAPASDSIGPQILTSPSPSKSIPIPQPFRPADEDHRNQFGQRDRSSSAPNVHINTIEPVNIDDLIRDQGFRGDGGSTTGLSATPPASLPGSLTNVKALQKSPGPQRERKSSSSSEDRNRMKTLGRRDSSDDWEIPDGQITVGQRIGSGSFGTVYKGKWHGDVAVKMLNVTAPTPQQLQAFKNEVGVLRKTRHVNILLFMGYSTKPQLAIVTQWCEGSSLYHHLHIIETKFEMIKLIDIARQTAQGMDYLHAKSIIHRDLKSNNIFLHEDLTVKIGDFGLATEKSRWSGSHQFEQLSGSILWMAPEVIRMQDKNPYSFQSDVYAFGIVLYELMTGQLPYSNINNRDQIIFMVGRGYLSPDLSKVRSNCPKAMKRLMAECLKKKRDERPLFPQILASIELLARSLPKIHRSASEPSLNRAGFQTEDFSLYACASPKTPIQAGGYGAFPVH

[2] = biological target: T1, Serine/threonine-protein kinase B-raf; experiment: Inhibition of B-raf V600E mutant-mediated Erk phosphorylation in human MALM-3M cells by fluorometric analysis; format: cell-based
[3] = Thermodynamic solubility of the compound at 0.5 mg/ml after 24 hrs by shake flask method at pH 1.2; format: physicochemical; settings: buffer, read-out: Therm_solubility
[4] = Dissociation constant, pKa of the compound at acidic pH; format: physicochemical
[5] = Cmax in mouse at 1 mg/kg, po dosed as crystalline suspension in 20%HPBCD vehicle (20% hydroxypropyl-beta-cyclodextrin/80% water); format: ADME, organism-based; set-up: dose 1 mg/kg, route oral; settings: in vivo
[6] = AUC in mouse at 1 mg/kg, po dosed as crystalline suspension in 20%HPBCD vehicle (20% hydroxypropyl-beta-cyclodextrin/80% water); format: ADME, organism-based; set-up: dose 1 mg/kg, route oral; settings: plasma
[7] = Oral bioavailability in mouse at 1 mg/kg dosed as crystalline suspension in 20%HPBCD vehicle (20% hydroxypropyl-beta-cyclodextrin/80% water); format: ADME, organism-based; settings: in vivo
[8] = Cmax in mouse at 10 mg/kg, po dosed as crystalline suspension in 20%HPBCD vehicle (20% hydroxypropyl-beta-cyclodextrin/80% water); format: ADME, organism-based; set-up: dose 10 mg/kg, route oral; settings: in vivo
[9] = AUC in mouse at 10 mg/kg, po dosed as crystalline suspension in 20%HPBCD vehicle (20% hydroxypropyl-beta-cyclodextrin/80% water); format: ADME, organism-based; set-up: dose 10 mg/kg, route oral; settings: plasma
[10] = Oral bioavailability in mouse at 10 mg/kg dosed as crystalline suspension in 20%HPBCD vehicle (20% hydroxypropyl-beta-cyclodextrin/80% water); format: ADME, organism-based; settings: in vivo
[11] = Cmax in mouse at 30 mg/kg, po dosed as crystalline suspension in 20%HPBCD vehicle (20% hydroxypropyl-beta-cyclodextrin/80% water); format: ADME, organism-based; set-up: dose 30 mg/kg, route oral; settings: in vivo
[12] = Cmax in mouse at 50 mg/kg, po dosed as crystalline suspension in 20%HPBCD vehicle (20% hydroxypropyl-beta-cyclodextrin/80% water); format: ADME, organism-based; set-up: dose 50 mg/kg, route oral; settings: in vivo
[13] = AUC in mouse at 50 mg/kg, po dosed as crystalline suspension in 20%HPBCD vehicle (20% hydroxypropyl-beta-cyclodextrin/80% water); format: ADME, organism-based; set-up: dose 50 mg/kg, route oral; settings: plasma
Cytochrome P450 2C9 = Cytochrome P450 2C9 (Homo sapiens, UniProt P11712); experiment: Inhibition of CYP2C9; format: ADME
Cytochrome P450 2C9, sequence (P11712 whole entry): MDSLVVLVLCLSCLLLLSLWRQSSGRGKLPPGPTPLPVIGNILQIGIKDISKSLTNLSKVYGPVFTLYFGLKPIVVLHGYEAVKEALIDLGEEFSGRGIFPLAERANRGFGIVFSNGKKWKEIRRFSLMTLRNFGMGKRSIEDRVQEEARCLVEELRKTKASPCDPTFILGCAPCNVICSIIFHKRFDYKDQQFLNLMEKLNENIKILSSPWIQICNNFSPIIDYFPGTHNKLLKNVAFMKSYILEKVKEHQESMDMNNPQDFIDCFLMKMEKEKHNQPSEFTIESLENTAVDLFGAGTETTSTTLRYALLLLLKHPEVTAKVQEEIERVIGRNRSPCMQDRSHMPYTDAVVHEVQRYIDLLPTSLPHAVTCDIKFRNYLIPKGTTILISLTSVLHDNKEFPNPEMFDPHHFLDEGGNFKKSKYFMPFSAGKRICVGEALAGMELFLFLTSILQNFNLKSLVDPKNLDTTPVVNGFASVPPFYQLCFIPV

[14] = Inhibition of cytochrome P450; format: ADME
[15] = biological target: Voltage-gated inwardly rectifying potassium channel KCNH2 (Homo sapiens, UniProt Q12809); experiment: Inhibition of human Erg
Voltage-gated inwardly rectifying potassium channel KCNH2, sequence (Q12809 whole entry): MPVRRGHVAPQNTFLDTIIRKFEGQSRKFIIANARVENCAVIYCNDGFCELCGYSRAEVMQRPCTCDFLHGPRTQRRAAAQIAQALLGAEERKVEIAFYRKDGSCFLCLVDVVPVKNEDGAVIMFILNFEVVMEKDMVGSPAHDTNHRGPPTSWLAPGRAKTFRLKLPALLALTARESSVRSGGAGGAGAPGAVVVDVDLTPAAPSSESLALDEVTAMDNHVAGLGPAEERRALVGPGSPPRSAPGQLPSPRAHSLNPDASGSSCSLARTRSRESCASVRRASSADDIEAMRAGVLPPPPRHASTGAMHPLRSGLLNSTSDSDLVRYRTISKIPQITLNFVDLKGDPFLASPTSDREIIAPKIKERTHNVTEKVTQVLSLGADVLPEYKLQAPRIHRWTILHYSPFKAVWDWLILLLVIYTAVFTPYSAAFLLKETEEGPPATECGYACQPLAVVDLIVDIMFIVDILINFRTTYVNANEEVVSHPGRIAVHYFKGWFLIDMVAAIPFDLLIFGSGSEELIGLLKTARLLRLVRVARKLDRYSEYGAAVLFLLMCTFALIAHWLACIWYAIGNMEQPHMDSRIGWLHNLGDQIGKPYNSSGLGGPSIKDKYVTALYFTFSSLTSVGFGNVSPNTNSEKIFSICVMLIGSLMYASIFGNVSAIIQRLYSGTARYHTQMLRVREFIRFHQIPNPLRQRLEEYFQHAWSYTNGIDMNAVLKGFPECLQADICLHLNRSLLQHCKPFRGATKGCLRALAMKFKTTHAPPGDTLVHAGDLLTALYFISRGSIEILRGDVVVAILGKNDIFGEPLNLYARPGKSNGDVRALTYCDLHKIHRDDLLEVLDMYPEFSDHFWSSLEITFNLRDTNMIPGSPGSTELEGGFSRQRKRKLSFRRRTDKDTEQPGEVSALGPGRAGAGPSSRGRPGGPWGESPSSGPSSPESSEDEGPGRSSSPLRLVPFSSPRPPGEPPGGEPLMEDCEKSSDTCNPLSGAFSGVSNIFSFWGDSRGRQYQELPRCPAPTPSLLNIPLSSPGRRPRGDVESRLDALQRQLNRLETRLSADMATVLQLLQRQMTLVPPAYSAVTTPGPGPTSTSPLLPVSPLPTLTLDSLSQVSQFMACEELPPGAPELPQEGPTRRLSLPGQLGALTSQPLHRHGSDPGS

Salmonella typhimurium = experiment: Induction of mutagenesis in Salmonella typhimurium by Ames test; format: toxicity, organism-based; settings: salmonella enterica subsp. enterica serovar typhimurium
COLO 205 [16] = experiment: Antitumor activity against human COLO205 cells expressing B-raf V600E mutant xenografted in po dosed NCr nude mouse assessed as decrease in tumor volume administered once daily for 21 days measured twice a week up to 21 days; format: functional
Mus musculus = experiment: Toxicity in NCr nude mouse xenografted with human COLO205 cells expressing B-raf V600E mutant assessed as adverse effects; format: organism-based, COLO 205; settings: in vivo
[17] = Time-dependent inhibition of cytochrome P450; format: ADME
[18] = biological target: T1, Serine/threonine-protein kinase B-raf; experiment: Inhibition of His6X-tagged human B-raf V600E mutant expressed in baculovirus infected insect cells coexpressing […] using [gamma33P]ATP after 60 mins by scintillation counting in presence of 1 mM ATP
[19] = AUC in mouse at 30 mg/kg, po dosed as crystalline suspension in 20%HPBCD vehicle (20% hydroxypropyl-beta-cyclodextrin/80% water); format: ADME, organism-based; set-up: dose 30 mg/kg, route oral; settings: plasma
[20] = Oral bioavailability in mouse at 30 mg/kg dosed as crystalline suspension in 20%HPBCD vehicle (20% hydroxypropyl-beta-cyclodextrin/80% water); format: ADME, organism-based; settings: in vivo
[21] = Dissociation constant, pKa of the compound at basic pH; format: physicochemical
[22] = Thermodynamic solubility of the compound at 0.5 mg/ml after 24 hrs by shake flask method at pH 6.5; format: physicochemical; settings: buffer, read-out: Therm_solubility
[23] = Clearance in mouse at 2.5 mg/kg, iv; format: ADME, organism-based; set-up: dose 2.5 mg/kg, route intravenous; settings: in vivo
[24] = Volume of distribution at steady state in mouse at 2.5 mg/kg, iv; format: ADME, organism-based; set-up: dose 2.5 mg/kg, route intravenous; settings: in vivo, read-out: Vdss
[25] = Plasma protein binding in mouse; format: ADME, cell-free; settings: read-out: PPB (converted)
[26] = Lipophilicity, log P of the compound; format: physicochemical; settings: octanol/water
[27] = biological target: Serine/threonine-protein kinase B-raf (Homo sapiens, UniProt P15056); experiment: Inhibition of wild type B-raf in presence of 1 mM ATP
Serine/threonine-protein kinase B-raf (Homo sapiens, UniProt P15056), sequence (P15056 whole entry): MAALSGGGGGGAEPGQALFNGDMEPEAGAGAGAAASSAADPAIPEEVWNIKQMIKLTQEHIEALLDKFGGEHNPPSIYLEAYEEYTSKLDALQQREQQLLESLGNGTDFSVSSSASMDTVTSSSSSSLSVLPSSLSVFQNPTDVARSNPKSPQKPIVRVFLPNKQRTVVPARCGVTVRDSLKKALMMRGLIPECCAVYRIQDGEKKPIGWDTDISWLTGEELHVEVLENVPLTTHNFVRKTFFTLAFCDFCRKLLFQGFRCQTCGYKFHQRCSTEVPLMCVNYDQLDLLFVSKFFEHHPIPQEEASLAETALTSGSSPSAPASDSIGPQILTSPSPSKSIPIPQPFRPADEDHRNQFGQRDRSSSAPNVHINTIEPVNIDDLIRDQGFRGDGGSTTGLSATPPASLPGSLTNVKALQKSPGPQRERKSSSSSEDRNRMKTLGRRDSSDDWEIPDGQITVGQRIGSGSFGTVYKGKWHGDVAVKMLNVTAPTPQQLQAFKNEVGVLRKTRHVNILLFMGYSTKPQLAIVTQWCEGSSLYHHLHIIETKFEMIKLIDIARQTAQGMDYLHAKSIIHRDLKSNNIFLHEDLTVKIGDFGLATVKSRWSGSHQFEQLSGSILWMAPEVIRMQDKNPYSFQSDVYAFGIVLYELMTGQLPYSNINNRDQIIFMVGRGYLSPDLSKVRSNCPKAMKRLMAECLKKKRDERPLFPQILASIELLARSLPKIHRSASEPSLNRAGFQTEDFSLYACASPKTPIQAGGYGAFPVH

[28] = biological target: RAF proto-oncogene serine/threonine-protein kinase (Homo sapiens, UniProt P04049); experiment: Inhibition of wild type C-raf in presence of 1 mM ATP
RAF proto-oncogene serine/threonine-protein kinase, sequence (P04049 whole entry): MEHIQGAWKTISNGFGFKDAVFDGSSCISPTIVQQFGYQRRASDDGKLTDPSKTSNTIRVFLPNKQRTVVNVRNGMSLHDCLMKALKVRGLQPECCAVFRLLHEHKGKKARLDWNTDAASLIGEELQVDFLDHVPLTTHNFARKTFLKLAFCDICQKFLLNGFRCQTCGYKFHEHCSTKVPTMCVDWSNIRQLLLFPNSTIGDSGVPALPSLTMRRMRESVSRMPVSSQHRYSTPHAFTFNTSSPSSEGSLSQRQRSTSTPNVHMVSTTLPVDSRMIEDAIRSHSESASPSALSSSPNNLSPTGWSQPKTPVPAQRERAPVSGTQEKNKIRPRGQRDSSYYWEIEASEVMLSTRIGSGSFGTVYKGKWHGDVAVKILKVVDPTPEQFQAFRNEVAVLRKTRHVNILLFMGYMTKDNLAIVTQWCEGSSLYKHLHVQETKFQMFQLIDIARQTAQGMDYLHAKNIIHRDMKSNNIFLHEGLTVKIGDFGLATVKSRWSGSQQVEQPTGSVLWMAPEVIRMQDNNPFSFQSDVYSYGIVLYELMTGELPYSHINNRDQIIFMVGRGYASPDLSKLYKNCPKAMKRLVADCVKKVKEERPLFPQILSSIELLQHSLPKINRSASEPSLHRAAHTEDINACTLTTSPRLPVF

Homo sapiens [29] = organism: Homo sapiens; experiment: Selectivity index, ratio of IC50 for wild-type B-raf to IC50 for human Braf V600E mutant
Homo sapiens [30] = organism: Homo sapiens; experiment: Selectivity index, ratio of IC50 for wild-type C-raf to IC50 for human Braf V600E mutant
[31] = Antiproliferative activity against human A375.X1 cells expressing B-raf V600E mutant; format: functional, cell-based
COLO 205 [32] = experiment: Antiproliferative activity against human COLO205 cells expressing B-raf V600E mutant; format: functional, cell-based
HT-29 = experiment: Antiproliferative activity against human HT-29 cells expressing B-raf V600E mutant and high level of EGFR; format: functional, cell-based
RKO = experiment: Antiproliferative activity against PTEN-deficient human RKO cells expressing B-raf V600E mutant and high level of EGFR; format: functional, cell-based
NCI-H226 = experiment: Antiproliferative activity against human NCI-H226 cells expressing wild-type B-raf; format: functional, cell-based
[33] = Clearance in rat at 1 mg/kg, iv dosed as crystalline suspension in 20%HPBCD vehicle (20% hydroxypropyl-beta-cyclodextrin/80% water); format: ADME, organism-based; set-up: dose 1 mg/kg, route intravenous; settings: in vivo
[34] = Volume of distribution at steady state in rat at 1 mg/kg, iv dosed as crystalline suspension in 20%HPBCD vehicle (20% hydroxypropyl-beta-cyclodextrin/80% water); format: ADME, organism-based; set-up: dose 1 mg/kg, route intravenous; settings: in vivo, read-out: Vdss
[35] = Cmax in rat at 5 mg/kg, po dosed as crystalline suspension in 20%HPBCD vehicle (20% hydroxypropyl-beta-cyclodextrin/80% water); format: ADME, organism-based; set-up: dose 5 mg/kg, route oral; settings: in vivo
[36] = AUC in rat at 5 mg/kg, po dosed as crystalline suspension in 20%HPBCD vehicle (20% hydroxypropyl-beta-cyclodextrin/80% water); format: ADME, organism-based; set-up: dose 5 mg/kg, route oral; settings: plasma
[37] = Oral bioavailability in rat at 5 mg/kg dosed as crystalline suspension in 20%HPBCD vehicle (20% hydroxypropyl-beta-cyclodextrin/80% water); format: ADME, organism-based; settings: in vivo
[38] = Cmax in rat at 25 mg/kg, po dosed as crystalline suspension in 20%HPBCD vehicle (20% hydroxypropyl-beta-cyclodextrin/80% water); format: ADME, organism-based; set-up: dose 25 mg/kg, route oral; settings: in vivo
[39] = AUC in rat at 25 mg/kg, po dosed as crystalline suspension in 20%HPBCD vehicle (20% hydroxypropyl-beta-cyclodextrin/80% water); format: ADME, organism-based; set-up: dose 25 mg/kg, route oral; settings: plasma
[40] = Oral bioavailability in rat at 25 mg/kg dosed as crystalline suspension in 20%HPBCD vehicle (20% hydroxypropyl-beta-cyclodextrin/80% water); format: ADME, organism-based; settings: in vivo
[41] = Oral bioavailability in mouse at 30 mg/kg dosed as crystalline suspension in 20%HPBCD vehicle (20% hydroxypropyl-beta-cyclodextrin/80% water); settings: in vivo
[42] = Mus musculus, COLO 205, po, 504 h

In the case of `CCCS(=O)(=O)Nc1ccc(F)c(NC(=O)Nc2cc(NC)ncn2)c1F`, the IC50 [1] is reported as 36 nM, the IC50 [2] is reported as 168 nM and the solubility thermodynamic at 24 h [3] is reported as 900 µg/mL (≈ 2250 µM).

With `Nc1ncnc2c(C(=O)Nc3c(Cl)ccc(NS(=O)(=O)CCCF)c3F)cccc12` the IC50 [1] was 0.11 nM and the IC50 [2] was 2.5 nM.

With `CCCS(=O)(=O)Nc1ccc(F)c(NC(=O)Nc2cc(NCCO)ncn2)c1F` the IC50 [2] was 3400 nM and the solubility thermodynamic at 24 h [3] was 900 µg/mL (≈ 2090 µM).

Molecule `CCCS(=O)(=O)Nc1ccc(F)c(NC(=O)Nc2ncnc3[nH]nc(OC)c23)c1F` has an IC50 [1] of 1.6 nM, an EC50 [2] of 2.6 nM and a pKa [4] of 1.8. For the same molecule, the solubility thermodynamic at 24 h [3] was 49 µg/mL (≈ 111 µM).

For `Nc1ncnc2c(C(=O)Nc3c(Cl)ccc(NS(=O)(=O)CCCF)c3F)csc12`, the Cmax [5] was 7.93 µM, the AUC [6] was 84 µM·h and the bioavailability [7] was greater than 100%. For the same molecule, the Cmax [8] was 73 µM, the AUC [9] was 867 µM·h and the bioavailability [10] was greater than 100%. The Cmax [11] was 162 µM, the Cmax [12] was 249 µM and the AUC [13] was 3250 µM·h. The IC50 (Cytochrome P450 2C9) was 9 µM, the IC50 [14] was greater than 25 µM and the “inhibition (INH)” value [15] was “Not Active”. For the same molecule, the Activity (Salmonella typhimurium) was “Non-toxic”, the TGI (COLO 205 [16]) was 130% and the ED50 (COLO 205 [16]; [42]) was 1.1 mg/kg. The ED90 (COLO 205 [16]; [42]) was 6.2 mg/kg, the Activity (Mus musculus) was “Non-toxic” and the “inhibition (INH)” value [17] was “Not Active”. It also gave an IC50 [18] of 2 nM, an AUC [19] of 1680 µM·h and a bioavailability [20] greater than 100%. For the same molecule, the IC50 [1] was 0.18 nM, the IC50 [2] was 4.6 nM and the pKa [21] was 3.6. The solubility thermodynamic at 24 h [3] was 700 µg/mL (≈ 1520 µM), the solubility thermodynamic at 24 h [22] was 10 µg/mL (≈ 21.6 µM) and the clearance [23] was 0.79 mL/min/kg. For the same molecule, the Vd [24] was 0.12 L/kg, the fraction unbound [25] was 0.03 and the logP [26] was 3.6. It also gave an IC50 [27] of 22 nM, an IC50 [28] of 73 nM and a Ratio IC50 (Homo sapiens [29]) of 11. It also gave a Ratio IC50 (Homo sapiens [30]) of 152, an EC50 [31] of 2 nM and an EC50 (COLO 205 [32]) of 5 nM. It also gave an EC50 (HT-29) of 24 nM, an EC50 (RKO) of 2310 nM and an EC50 (NCI-H226) greater than 10 µM. The clearance [33] was 0.19 mL/min/kg, the Vd [34] was 0.14 L/kg and the Cmax [35] was 44.5 µM. The AUC [36] was 651 µM·h, the bioavailability [37] was 68% and the Cmax [38] was 201 µM. It also gave an AUC [39] of 2970 µM·h, a bioavailability [40] of 62% and a bioavailability [41] greater than 100%.

For `CCCS(=O)(=O)Nc1ccc(F)c(NC(=O)c2csc3c(N)ncnc23)c1Cl`, the IC50 [1] was 1.1 nM and the IC50 [2] was 15 nM.

`CCCS(=O)(=O)Nc1ccc(F)c(NC(=O)N(C)c2cc(N)ncn2)c1F` showed an IC50 [2] of 240 nM.
